Assays:
[1] = biological target: T1, B16F10 cellular tyrosinase (Mus musculus, UniProt P11344); test: Cellular tyrosinase activity assay using B16F10 cells; format: cell-based, murine; settings: 1, 2, and 5 μM, IBMX 200 μM plus α-MSH 1 μM, 72 h
T1 construct: endogenous in cells; host or cells: B16F10 murine cells, stimulated with α-MSH and IBMX
T1 sequence (P11344 19-533): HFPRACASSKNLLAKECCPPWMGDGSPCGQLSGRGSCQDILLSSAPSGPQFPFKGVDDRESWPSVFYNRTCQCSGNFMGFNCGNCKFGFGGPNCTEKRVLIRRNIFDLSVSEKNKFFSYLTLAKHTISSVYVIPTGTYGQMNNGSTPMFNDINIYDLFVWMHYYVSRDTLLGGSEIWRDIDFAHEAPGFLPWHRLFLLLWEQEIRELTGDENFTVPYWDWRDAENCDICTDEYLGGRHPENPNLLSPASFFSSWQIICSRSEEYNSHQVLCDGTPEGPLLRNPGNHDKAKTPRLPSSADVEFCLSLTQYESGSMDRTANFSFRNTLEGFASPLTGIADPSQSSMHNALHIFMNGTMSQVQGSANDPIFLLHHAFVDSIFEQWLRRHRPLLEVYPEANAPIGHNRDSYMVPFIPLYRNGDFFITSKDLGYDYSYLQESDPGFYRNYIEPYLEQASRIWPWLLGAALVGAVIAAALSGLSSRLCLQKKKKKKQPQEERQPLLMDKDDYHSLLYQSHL
Procedure: After 72 h of incubation, the B16F10 cellular tyrosinase inhibitory activity was evaluated by measuring the optical density at 475 nm.
To evaluate the effect of compounds 5 and 9 on cellular tyrosinase activity, B16F10 cells (5000 cells/well) were inoculated in a 6-well plate and cultured for 24 h under the same conditions as the cell culture. […] The plate was incubated in a 5% CO2 incubator maintained at 37 °C for 1 h. Each well was treated with stimulators (1 μM α-MSH [Alomone Labs^TM, Jerusalem, Israel] and 200 μM IBMX [Thermo Fisher, Rockford, IL, USA]) and incubated in a CO2 incubator for 72 h. The cells were rinsed twice with PBS (pH 7.4) and treated with 100 μL lysis buffer solution consisting of Triton X-100 (1%; 5 μL), phosphate buffer (50 mM; pH 6.5; 90 μL), and phenylmethanesulfonyl fluoride (2 mM; 5 μL). The lysates were placed for 30 min at −80 °C. After centrifuging at 10,000 g and 4 °C for 10 min, an aliquot (80 μL) of the supernatants was transferred to each well of a 96-well plate, and 20 μL of L-dopa solution (10 mM) was added to each well. The optical density at 475 nm was recorded every min for 10 min to determine cellular tyrosinase activity.

HaCaT cells = test: Cytotoxicity assay on HaCaT cells (EZ-Cytox); format: cell-based, human; settings: 1, 2, 5, 10, and 20 μM, 24 h
Procedure: In addition to melanocytes, keratinocytes are the primary cells present in the epidermis. […] Each compound was treated at concentrations of 0, 1, 2, 5, 10, and 20 μM for 24 h, and cell viability was measured using the EZ-Cytox solution.
The effect of compounds 5 and 9 on cell viability of HaCaT and B16F10 cells was assessed using an EZ-Cytox solution (EZ-1000®, DoGenBio, Seoul, Republic of Korea). HaCaT (5 × 10^3 cells/well) and B16F10 (1 × 10^3 cells/well) cells were seeded in a 96-well plate, respectively, and cultured for 24 h under the same conditions as the cell culture. Each well was treated with 5 and 9 at 0, 1, 2, and 5 μM for B16F10 cells and 0, 1, 2, 5, 10, and 20 μM for HaCaT cells. The plates were incubated for 72 h for B16F10 cells and 24 h for HaCaT cells under a CO2 incubator. Each well was treated with the EZ-Cytox solution (10 μL), and the plate was left for 2 h under a CO2 incubator. Well optical density was measured at 450 nm to determine cytotoxicity.

mushroom tyrosinase = mushroom tyrosinase (Agaricus bisporus, UniProt C7FF04); test: Kinetic analysis of mushroom tyrosinase (Lineweaver–Burk and Dixon plots); format: biochemical; set-up: purchased Sigma-Aldrich; settings: substrate L-dopa
Procedure: Therefore, the mechanism of inhibition was investigated using mushroom tyrosinase. At various concentrations of L-dopa, the initial dopachrome production rate was investigated at four different concentrations of 5 (0, 20, 40, and 80 μM) and 9 (0, 0.5, 1.0, and 2.0 μM).
The Lineweaver–Burk plot for each compound was re-plotted by plotting the reciprocal of the initial dopachrome production rate vs. the […] to create a Dixon plot for each compound (Figure 3C,D for compounds 5 and 9, respectively). […] The absolute value of the x-coordinate of the merged point represents the inhibition constant (Ki), which indicates the potency of the inhibitor.
Kinetic analysis of mushroom tyrosinase was performed by recording the initial dopachrome formation rate in the presence of compounds 5 and 9. […] The optical density of dopachrome production in each well was recorded at 475 nm at 5 min intervals for 30 min. Compounds were tested at 80, 40, 20, and 0 μM for 5 and at 2, 1.0, 0.5, and 0 μM for 9, respectively. Potting the inverse of the substrate concentration vs. the reciprocal of the initial dopachrome production rate generated Lineweaver–Burk plots.

mushroom tyrosinase, sequence (C7FF04 1-392): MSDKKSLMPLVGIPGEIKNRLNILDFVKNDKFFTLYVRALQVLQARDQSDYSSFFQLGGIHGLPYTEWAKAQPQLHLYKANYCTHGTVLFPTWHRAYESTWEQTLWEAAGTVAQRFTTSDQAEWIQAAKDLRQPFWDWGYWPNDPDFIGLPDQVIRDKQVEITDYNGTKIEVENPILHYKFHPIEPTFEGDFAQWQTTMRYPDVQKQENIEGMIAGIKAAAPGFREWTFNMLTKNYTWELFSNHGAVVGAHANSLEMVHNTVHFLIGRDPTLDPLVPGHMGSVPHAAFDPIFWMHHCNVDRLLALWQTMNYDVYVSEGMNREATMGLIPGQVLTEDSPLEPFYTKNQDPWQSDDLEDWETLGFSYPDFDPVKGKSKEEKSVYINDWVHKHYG

Oc1ccc(-c2nc3cc4c(cc3s2)OCO4)c(O)c1 [Compound 9, 4-([1,3]Dioxolo[4′,5′:4,5]benzo[1,2-d]thiazol-6-yl)benzene-1,3-diol] was tested, and the cellular tyrosinase activity [1] was “significantly decreased the cellular tyrosinase activity”, the “cytotoxicity (cell viability)” value (HaCaT cells) was “None of the compounds revealed significant cytotoxicity up to 20 μM” and the Ki (mushroom tyrosinase; Dixon plot, read-out: inhibition constant (Ki)) was 380 nM. The mechanism of inhibition (mushroom tyrosinase; Lineweaver–Burk plot) was “competitive inhibitors”.

Source: article PMC11990524, “Design and Synthesis of Novel 6-(Substituted phenyl)-[1,3]dioxolo[4′,5′:4,5]benzo[1,2-d]thiazole Compounds as Tyrosinase Inhibitors: In Vitro and In Vivo Insights” (Molecules, 2025)
